# Results from patent US10780076B2, “Inhibition of cancer cell motility” (Northwestern University, priority 2014, dated 2020).
# Columns and labels:
# [1] = test system: human bone marrow stem cells; assay: Hematopoietic stem cell 14-day colony formation assay; type: cell-based; conditions: colonies at 14 days
# Protocol: (FIG. 2A) Cell invasion. Human prostate metastatic cells (PC3, PC3-M), and HPV transformed normal (1532NPTX, I542NPTX) and primary cancer (1532CPTX, 1542CPTX) cells, were treated with 10 μM genistein (G), KBU2046 (46) or vehicle (CO), and after 3 days, cell invasion was measured. Values are mean±SEM. (FIG. 2B) Single cell migration. Cell migration was measured after treatment for 3 days with 10 μM KBU2046 or vehicle (control). Values are mean±SEM. *Denotes Student's t test P value </=0.05, compared to controls. […] Values are mean±SEM. (FIG. 2D) Human cord blood hematopoietic stem cell colony formation assay. Values are the mean±SD number of total, CFU-GM, CFU-GEMM or BFU-E colonies at 14 days after treatment with KBU2046. […]
# Additional functional measures of toxicity included a NCI-based screen of the NCI 60-cell line panel (Shoemaker, 2006; herein incorporated by reference in its entirety), expression of estrogen-responsive genes by qRT/PCR (Ding et al., 2007; herein incorporated by reference in its entirety), induction of an estrogen-responsive promoter by luciferase assay (Breen et al., 2013; Catherino and Jordan, 1995; herein incorporated by reference in their entireties), and a hematopoietic stem cell 14-day colony formation assay (Bergan et al., 1996; herein incorporated by reference in its entirety). […] The migration of individual cells was assessed by time-lapse video microscopy.
# NCI 60 cell line panel = NCI 60 cell line panel screen; type: cell-based, human; conditions: initial screening per DTP protocol
# Description: FIG. 8. […] KBU2046 was submitted to the Developmental Therapeutics Program (DTP) of the US National Cancer Institute (NCI), underwent initial screening across the NCI 60 cell line panel per DTP protocol (Shoemaker, 2006; herein incorporated by reference in its entirety), and the resultant COMPARE diagram is depicted.
# Additional functional measures of toxicity included a NCI-based screen of the NCI 60-cell line panel (Shoemaker, 2006; herein incorporated by reference in its entirety), expression of estrogen-responsive genes by qRT/PCR (Ding et al., 2007; herein incorporated by reference in its entirety), induction of an estrogen-responsive promoter by luciferase assay (Breen et al., 2013; Catherino and Jordan, 1995; herein incorporated by reference in their entireties), and a hematopoietic stem cell 14-day colony formation assay (Bergan et al., 1996; herein incorporated by reference in its entirety). Protein Data Base (PDB) X-ray crystallographic structural data (PDB IDs: IX7R, IX7J) was used to determine what chemical groups of genistein bound to the ER. The migration of individual cells was assessed by time-lapse video microscopy.
# [2] = Plasma KBU2046 concentration in chow-treated athymic mice; type: in vivo
# Protocol: (§1) FIGS. 3A-D. KBU2046 inhibits cancer metastasis and prolongs life. (A, B) Inhibition of PCa metastasis. Cohorts of athymic mice bearing human PCa PC3-M cell orthotopic implants (A), or of non-tumor bearing athymic mice (B), were treated with KBU2046 incorporated into chow, and resultant lung metastasis (A) or plasma KBU2046 concentration (B) measured. Values are the mean±SEM. The relationship between dose and metastasis was evaluated by two-sided ANOVA (A). (C) Comprehensive characterization of KBU2046 phannacokinetics. CD1 mice were dosed with 100 mg KBU2046/kg via oral gavage or intravenous injection (iv), and blood collected at the indicated time points. The dotted horizontal line denotes a concentration of 24 nM, which was the concentration of KBU2046 measured in the blood of mice whose metastasis were suppressed by 92% (A, B). […]
# Orthotopic implantation of human PCa cells and quantification of distant metastasis was performed as described (Pavese et al., 2013; herein incorporated by reference in its entirety). […] Quantification of KBU2046 plasma concentrations was performed by LCMS. […] Critical organs were examined for structural damage using a semi-quantitative histological scoring system (Knodell et al., 1981; herein incorporated by reference in its entirety), while their function was assessed by comprehensive clinical laboratory testing of blood samples. […]
# [3] = Pharmacokinetics in CD1 mice; type: in vivo; conditions: single oral dose
# Protocol: as §1
# FIG. 11. […] (top graph) Concentration versus time plot, expressed as ng/ml. The 100 mg dosing data was re-plotted and expressed as nM. […] Values are parameter estimates from a naive pooled data approach in which single plasma concentrations measured for individual animals were pooled for both routes of administration of both doses and modeled simultaneously.
# Orthotopic implantation of human PCa cells and quantification of distant metastasis was performed as described (Pavese et al., 2013; herein incorporated by reference in its entirety). […]
# [4] = Systemic off-target effects: organ histology and organ function; type: in vivo, mice
# Description: FIG. 13. KBU2046 treatment is not associated with systemic off-target effects. […] After 35 days of treatment, the following organs were harvested at necropsy, and stained with H&E (alternative staining methods as indicated): heart, lungs, esophagus, stomach, colon, small intestine, liver (Trichrome staining), kidneys (Trichrome staining), adrenals, bladder, prostate, spleen, pancreas, brain, testes, and bone marrow and peripheral blood (Giemsa staining). Organs were examined for damage using a semi-quantitative histological scoring system (Knodell et al., 1981; herein incorporated by reference in its entirety). […] Changes in the liver observed in control mice were not increased by KBU2046 treatment. […] On day 8 and 14, all critical organs were weighed, and the following parameters measured in blood: cholesterol, triglycerides, alanine aminotransferase (ALT), aspartate aminotransferase (AST), total bilirubin, glucose, phosphorus, total protein, calcium, blood urea nitrogen (BUN), creatinine, albumin, Na, K, Cl, white blood cells (with differential), red blood cells, hemoglobin, platelets.
# Orthotopic implantation of human PCa cells and quantification of distant metastasis was performed as described (Pavese et al., 2013; herein incorporated by reference in its entirety). […] Quantification of KBU2046 plasma concentrations was performed by LCMS. […]
compound,measurement,setting,value
"O=C1c2ccccc2OCC1c1ccc(F)cc1 (racemic) [KBU2046, 4′-fluoroisoflavanone]",toxicity to human bone marrow stem cells,[1],not toxic
same,cell toxicity in NCI 60 cell line panel,NCI 60 cell line panel,minimal-to-no cell toxicity
same,plasma concentrations at which metastasis decreased,[2],1.1 to 24 nM
same,time plasma concentration maintained >24 nM,[3],9.3 h
same,organ damage by histologic examination,"[4]; Balb/c athymic mice, 35 days of treatment",No organ damage was observed
same,organ weights and blood chemistry/hematology parameters,"[4]; CD1 mice, single iv 15, 75 or 125 mg/kg, day 8 and 14",No abnormal alterations in any of these parameters were observed
